Experimental data taken from patent US20040072825A1, “2-(2-(4-((2r)-2-methyl-3-(10h-phenothiazin-10-yl)propyl)-1-piperazinyl)-ethoxy) ethanol, process for the preparation thereof, pharmaceutical compositions containing said compound and therapeutic uses thereof” (priority 2000, published 2004).
Marks after values point to notes of the source that are not given here.

How the values were obtained:
[1] = molecular target: T1, D4.4 dopaminergic receptor (Homo sapiens, UniProt P21917); assay: Radioligand binding, D4.4 receptor (CHO cell culture); conditions: for IC50: D4.4, competitive binding, read-out: Affinity pIC50 (-log IC50) (converted)
T1 construct: expressed in transfected cells; host or cells: CHO
T1 sequence (P21917 1-419): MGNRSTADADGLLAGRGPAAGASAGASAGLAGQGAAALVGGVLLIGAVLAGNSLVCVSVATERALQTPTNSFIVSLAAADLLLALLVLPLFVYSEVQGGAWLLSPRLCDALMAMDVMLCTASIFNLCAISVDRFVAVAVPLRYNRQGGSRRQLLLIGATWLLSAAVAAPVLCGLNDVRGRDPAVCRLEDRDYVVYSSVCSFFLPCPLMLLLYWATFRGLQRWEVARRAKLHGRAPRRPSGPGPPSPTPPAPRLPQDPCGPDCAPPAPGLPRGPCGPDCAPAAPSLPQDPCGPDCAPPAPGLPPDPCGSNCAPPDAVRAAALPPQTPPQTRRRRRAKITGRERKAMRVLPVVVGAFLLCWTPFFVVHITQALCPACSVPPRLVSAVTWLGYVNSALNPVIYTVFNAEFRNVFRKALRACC
Experimental: (§1) The test substances, biological materials and experimental protocols used in the study are described in Moguilevsky N. et al. (1994) Eur. J. […] List S. J. (1981) Proc. Natl. Acad. Sci.78:2620-2624; MacKenzie R. G. et al. (1994) Eur. J. Pharmacol. 266:79-85; Van Tol et al., (1992) Nature, 358:149-152. […] Filtermat A, Walac), then washed with cold buffer using a filtration unit ‘Cell Harvester’ (Brandel, Packard or Tomtec). The bound radioactivity is measured using a scintillation liquid (Formula 989 or Microscint 0, Packard) or solid (Meltilex B/HS, Wallac), and a scintillation counter (LS 6000, Beckman; Topcount, Packard; Betaplate, Wallac). […] Each experiment was performed in duplicate (n=2). In parallel, a positive control (concentration of reference substance causing 50% inhibition of radioligand specific binding) is tested to validate the assay. For competition experiments, membranes are incubated in the buffer containing the radioligand and increasing concentrations of unlabeled test substances. Each binding assay is validated with a reference compound tested in parallel. […] where BO and BI represent the total binding in the absence and presence of the unlabelled drug (in dpm/assay) and NSB is the amount of non specific binding (in dpm/assay). Analysis of raw data and pIC50 calculation is performed by computerized non-linear curve fitting methods using a set of equations describing competitive interactions between labelled and unlabeled ligands which obey the law of mass action. IC50 represents the concentration of the test substance inhibiting 50% of the specific binding of the radioligand. It is determined in competitive binding experiments by measuring the binding of a single concentration of a radioactive ligand at equilibrium with various concentrations of the unlabeled test substance. pIC50=−log IC50

[2] = molecular target: D2 dopaminergic receptor (Rattus norvegicus, UniProt P61169); assay: Radioligand binding, D2 receptor (rat striatum membranes); conditions: for IC50: D2, competitive binding, read-out: Affinity pIC50 (-log IC50) (converted)
Experimental: as §1

[3] = molecular target: T2, human D3 dopaminergic receptor (Homo sapiens, UniProt P35462); assay: Radioligand binding, human D3 receptor (CHO cell culture); conditions: for IC50: D3, competitive binding, read-out: Affinity pIC50 (-log IC50) (converted)
T2 construct: expressed in transfected cells; host or cells: CHO
Experimental: as §1

[4] = molecular target: human H1 histaminic receptor (Homo sapiens, UniProt P35367); assay: Radioligand binding, human H1 receptor (CHO cell culture); conditions: for IC50: H1, competitive binding, read-out: Affinity pIC50 (-log IC50) (converted)
Experimental: as §1

[5] = tested on: vomiting induced by cisplatin in ferrets; assay: Cisplatin-induced emesis in ferrets, single oral administration; type: in vivo, ferret; conditions: for Proportion of animal vomiting: 60 min before cisplatin i.v., 5 h observation
Experimental: Cisplatin-induced emesis in ferrets is largely considered as the most suitable animal model for the study of drug activity against chemotherapy-induced vomiting in man (Georges L. King. Animal models in the study of vomiting. Can. J. Physiol. Pharmacol. 68, 260-268, 1988).
Three compounds, dixyrazine dihydrochloride and its (R) and (S) enantiomers were tested for their activity against vomiting induced by cisplatin in ferrets following single oral administration.
The study involved 14 groups of 8 male ferrets weighing between 0.93 kg and 1.45 kg purchased from the company MARSHALL FARMS (NEW YORK, U.S.). Groups were defined as follows: […]
group 1: control group dosed with the vehicle of test substances (sterile water),
group 2: method-control group dosed with a method-control substance, granisetron ([…], RBI®), at a dose of 0.3 mg/kg,
group 3 to 6: group dosed with diyyrazine dihydrochloride at 4 increasing doses of 7.5, 15, 30 and 60 mg/kg,
group 7 to 10: group dosed with the (R) enantiomer of dixyrazine dihydrochloride at 4 increasing doses of 7.5, 15, 30 and 60 mg/kg,
group 11 to 14: group dosed with the (S) enantiomer of drazine dihydrochloride at 4 increasing doses of 7.5, 15, 30 and 60 mg/kg.
On the day prior to the test, animals were fasted and allowed access only to water.
On the morning of the day of the study, free access to food was allowed for 30 minutes. Subsequently, animals were again put on to a water-only fast for 30 minutes before administration of the three compounds, the vehicle or the method-control substance which were administrated orally in a volume of 5 ml/kg.
Cisplatin was administrated by the intravenous route at a dose of 115 mg/m^2 and in a volume of 115 ml/m^2 (i.e. approximately at 10 mg/kg), 60 minutes after treatment. […] Emesis was characterised by abdominal contractions, which were associated with expulsion or attempted expulsion of stomach contents.
The time to onset of emesis was noted. The number of episodes of vomiting and the number of abdominal retches associated with episodes of emesis were also noted.

[6] = molecular target: T3, 5-HT2 serotonergic receptor (Rattus norvegicus, UniProt P14842); assay: Radioligand binding, 5-HT2 receptor (rat cerebral cortex); conditions: for IC50: 5-HT2, competitive binding, read-out: Affinity pIC50 (-log IC50) (converted)
T3 construct: the rat cerebral cortex (5-HT2 receptor); from tissue; host or cells: rat cerebral cortex
Experimental: as §1

[7] = tested on: vomiting and nausea in cancerotherapy; conditions: patients in cancerotherapy, personal interview; cited from earlier work
[8] = highest dose of 60 mg/kg p.o., dihydrochloride, 60 mg/kg
[9] = highest dose of 60 mg/kg p.o., listed as (R) enantiomer of dixyrazine dihydrochloride, dihydrochloride, 60 mg/kg

T2 sequence (P35462 whole entry): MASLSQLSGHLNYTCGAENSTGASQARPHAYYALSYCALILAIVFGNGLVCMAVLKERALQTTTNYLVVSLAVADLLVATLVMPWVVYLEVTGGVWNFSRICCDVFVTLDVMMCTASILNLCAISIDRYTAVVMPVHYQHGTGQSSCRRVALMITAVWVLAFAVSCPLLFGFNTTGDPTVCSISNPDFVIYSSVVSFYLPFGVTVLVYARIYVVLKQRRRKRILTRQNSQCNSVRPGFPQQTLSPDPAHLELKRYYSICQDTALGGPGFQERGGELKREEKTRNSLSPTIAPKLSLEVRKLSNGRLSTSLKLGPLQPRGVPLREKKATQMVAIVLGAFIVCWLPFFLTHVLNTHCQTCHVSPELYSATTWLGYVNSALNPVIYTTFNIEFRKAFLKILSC
T3 sequence (P14842 whole entry): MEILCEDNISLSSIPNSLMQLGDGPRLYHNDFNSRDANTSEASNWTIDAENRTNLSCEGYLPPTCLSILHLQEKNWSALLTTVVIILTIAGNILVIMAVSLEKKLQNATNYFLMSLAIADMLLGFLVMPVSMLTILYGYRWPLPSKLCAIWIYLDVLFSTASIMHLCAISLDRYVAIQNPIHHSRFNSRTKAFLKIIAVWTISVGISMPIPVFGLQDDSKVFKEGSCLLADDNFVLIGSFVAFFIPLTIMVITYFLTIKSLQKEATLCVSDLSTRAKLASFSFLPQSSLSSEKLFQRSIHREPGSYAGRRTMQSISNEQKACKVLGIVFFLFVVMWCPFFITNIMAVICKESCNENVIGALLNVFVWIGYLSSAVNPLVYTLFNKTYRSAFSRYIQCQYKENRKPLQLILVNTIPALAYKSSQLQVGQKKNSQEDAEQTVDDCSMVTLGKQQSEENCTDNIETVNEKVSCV
Sequence of D2 dopaminergic receptor (P61169 1-415 isoform P61169-2): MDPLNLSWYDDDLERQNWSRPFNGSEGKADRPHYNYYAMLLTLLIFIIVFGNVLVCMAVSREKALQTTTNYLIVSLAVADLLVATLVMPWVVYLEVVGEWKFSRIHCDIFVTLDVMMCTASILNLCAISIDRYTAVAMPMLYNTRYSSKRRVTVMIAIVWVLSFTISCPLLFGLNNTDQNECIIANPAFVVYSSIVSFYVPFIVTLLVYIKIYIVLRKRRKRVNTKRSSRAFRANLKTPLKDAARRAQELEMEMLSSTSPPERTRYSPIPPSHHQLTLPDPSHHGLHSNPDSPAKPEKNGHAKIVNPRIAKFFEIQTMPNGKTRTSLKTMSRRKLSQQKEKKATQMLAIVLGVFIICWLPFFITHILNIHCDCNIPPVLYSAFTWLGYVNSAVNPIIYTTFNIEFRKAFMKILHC
Sequence of human H1 histaminic receptor (P35367 whole entry): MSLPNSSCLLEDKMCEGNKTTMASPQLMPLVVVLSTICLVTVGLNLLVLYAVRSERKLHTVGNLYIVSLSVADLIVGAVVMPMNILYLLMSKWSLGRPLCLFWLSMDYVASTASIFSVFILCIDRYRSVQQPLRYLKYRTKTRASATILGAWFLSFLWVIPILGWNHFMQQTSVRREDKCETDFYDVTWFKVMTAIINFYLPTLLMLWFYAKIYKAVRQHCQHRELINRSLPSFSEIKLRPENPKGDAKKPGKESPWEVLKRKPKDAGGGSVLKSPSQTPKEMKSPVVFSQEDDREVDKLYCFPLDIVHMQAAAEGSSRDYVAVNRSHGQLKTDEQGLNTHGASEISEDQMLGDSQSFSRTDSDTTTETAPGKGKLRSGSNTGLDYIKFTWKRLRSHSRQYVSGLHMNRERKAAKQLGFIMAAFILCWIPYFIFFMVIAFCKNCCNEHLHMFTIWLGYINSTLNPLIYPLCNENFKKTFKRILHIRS

Compound `C[C@@H](CN1CCN(CCOCCO)CC1)CN1c2ccccc2Sc2ccccc21.Cl.Cl` [(S) enantiomer dihydrochloride, 2-(2-{4-[(2S)-2-Methyl-3-(10H-phenothiazin-10-yl)propyl]-1-piperazinyl}ethoxy)ethanol dihydrochloride] has an IC50 [1] of 25100 nM, an IC50 [2] of 794 nM and an IC50 [3] of 3160 nM. The IC50 [4] was 5.01 nM, the “Time to onset of emesis” value ([5]; 7.5 mg/kg p.o.) was 87 min and the “Proportion of animal vomiting” value ([5]; 7.5 mg/kg p.o.) was 8/8. For the same compound, the “Time to onset of emesis” value ([5]; 15 mg/kg p.o.) was 87 min, the “Proportion of animal vomiting” value ([5]; 15 mg/kg p.o.) was 8/8 and the “Time to onset of emesis” value ([5]; 30 mg/kg p.o.) was 82 min. The “Proportion of animal vomiting” value ([5]; 30 mg/kg p.o.) was 7/8, the “Time to onset of emesis” value ([5]; 60 mg/kg p.o.) was 68* minutes and the “Proportion of animal vomiting” value ([5]; 60 mg/kg p.o.) was 7/8. For the same compound, the “pro-emetic properties (in words)” value ([5]; cisplatin-treated ferrets) was “undesirable pro-emetic properties”, the “effect on time to onset of emesis (in words)” value (“effect on time to onset” below) ([5]; highest dose of 60 mg/kg p.o.) was “statistically significant decrease in the time of onset of emesis” and the “antiemetic effect (in words)” value ([5]; whatever the dose tested (7.5 to 60 mg/kg p.o.), dihydrochloride) was “no antiemetic effect”. The “antiemetic effect (in words)” value ([5]; whatever the dose tested (7.5 to 60 mg/kg p.o.), listed as (S) enantiomer of dixyrazine dihydrochloride, dihydrochloride) was “inactive in preventing cisplatin-induced emesis” and the IC50 [6] was 63.1 nM.
For `C[C@@H](CN1CCN(CCOCCO)CC1)CN1c2ccccc2Sc2ccccc21` (single isomer, unassigned) [(S) enantiomer (free base)], the “percent inhibition of control specific binding” value (shortened to “percent inhibition”) ([1]; D4.4, 0.2 μM, mean of duplicate) was “— (Symbol-represents an inhibition<10%)”, the “percent inhibition” value ([1]; D4.4, 10 μM, mean of duplicate) was 27% and the “percent inhibition” value ([2]; D2, 10 μM, mean of duplicate) was 89%. The “percent inhibition” value ([3]; D3, 0.2 μM, mean of duplicate) was “— (Symbol-represents an inhibition<10%)”, the “percent inhibition” value ([3]; D3, 10 μM, mean of duplicate) was 74% and the “percent inhibition” value ([4]; H1, 10 μM, mean of duplicate) was 101%. The “percent inhibition” value ([6]; 5-HT2, 10 μM, mean of duplicate) was 101%.
For `C[C@H](CN1CCN(CCOCCO)CC1)CN1c2ccccc2Sc2ccccc21` [(R) enantiomer (free base), 2-(2-{4-[(2R)-2-methyl-3-(10H-phenothiazin-10-yl)propyl]-1-piperazinyl}ethoxy)ethanol], the inhibition at 0.1 µM ([1]; D4.4, 0.1 μM, mean of duplicate, read-out: percent inhibition of control specific binding) was 40%, the inhibition at 10 µM ([1]; D4.4, 10 μM, mean of duplicate, read-out: percent inhibition of control specific binding) was 99% and the inhibition at 10 µM ([2]; D2, 10 μM, mean of duplicate, read-out: percent inhibition of control specific binding) was 100%. The inhibition at 0.1 µM ([3]; D3, 0.1 μM, mean of duplicate, read-out: percent inhibition of control specific binding) was 81%, the inhibition at 10 µM ([3]; D3, 10 μM, mean of duplicate, read-out: percent inhibition of control specific binding) was 100% and the inhibition at 10 µM ([4]; H1, 10 μM, mean of duplicate, read-out: percent inhibition of control specific binding) was 101%. It also gave an inhibition at 10 µM ([6]; read-out: percent inhibition of control specific binding, 5-HT2, 10 μM, mean of duplicate) of 102%.
In the case of `CN1C2CCCC1CC(NC(=O)c1nn(C)c3ccccc13)C2` (stereo not shown) [Granisetron, reference compound], the “Time to onset of emesis” value ([5]; 0.3 mg/kg p.o.) is reported as 160* minutes, the “antiemetic effect (in words)” value ([5]; 0.3 mg/kg p.o.) is reported as “significant antiemetic effect” and the “Proportion of animal vomiting” value ([5]; 0.3 mg/kg p.o.) is reported as 3/8*. The “suppression of vomiting, number of animals” value ([5]; 0.3 mg/kg p.o., 1 hour before cisplatin i.v.) was 5 animals out of 8 and the “effect on time to onset” value ([5]; 0.3 mg/kg p.o., the 3 animals that still vomited) was “increase in the time to onset of emesis”.
For `C[C@H](CN1CCN(CCOCCO)CC1)CN1c2ccccc2Sc2ccccc21.Cl.Cl` [(R) enantiomer dihydrochloride, 2-(2-{4-[(2R)-2-methyl-3-(10H-phenothiazin-10-yl)propyl]-1-piperazinyl}ethoxy)ethanol dihydrochloride], the IC50 [1] was 158 nM, the Stereoselectivity ratio ([1]; D4.4, IC50 of (S) enantiomer/IC50 of (R) enantiomer) was 158 and the IC50 [2] was 2.51 nM. It also gave a Stereoselectivity ratio ([2]; D2, IC50 of (S) enantiomer/IC50 of (R) enantiomer) of 316, an IC50 [3] of 50.1 nM and a Stereoselectivity ratio ([3]; D3, IC50 of (S) enantiomer/IC50 of (R) enantiomer) of 63. For the same compound, the IC50 [4] was 0.2 nM, the Stereoselectivity ratio ([4]; H1, IC50 of (S) enantiomer/IC50 of (R) enantiomer) was 25 and the “Time to onset of emesis” value ([5]; 7.5 mg/kg p.o.) was 81 min. For the same compound, the “Proportion of animal vomiting” value ([5]; 7.5 mg/kg p.o.) was 5/8, the “Time to onset of emesis” value ([5]; 15 mg/kg p.o.) was 80 min and the “Proportion of animal vomiting” value ([5]; 15 mg/kg p.o.) was 8/8. For the same compound, the “Time to onset of emesis” value ([5]; 30 mg/kg p.o.) was 81 min, the “Proportion of animal vomiting” value ([5]; 30 mg/kg p.o.) was 5/8 and the “Time to onset of emesis” value ([5]; 60 mg/kg p.o.) was 134 min. The “suppression of vomiting, number of animals” value ([5]; 60 mg/kg p.o.) was 4 animals out of 8, the “Proportion of animal vomiting” value ([5]; 60 mg/kg p.o.) was 4/8* and the “antiemetic effect (in words)” value [5, 8] was “induced an antiemetic effect”. For the same compound, the “effect on time to onset” value [5, 8] was “a tendency to increase the time to onset of emesis”, the “antiemetic effect (in words)” value [5, 9] was “significantly reduce cisplatin-induced emesis” and the “effect on time to onset” value [5, 9] was “clear tendency to delay the latency to onset of the first vomiting episode”. For the same compound, the IC50 [6] was 3.98 nM and the Stereoselectivity ratio ([6]; 5-HT2, IC50 of (S) enantiomer/IC50 of (R) enantiomer) was 16.
In the case of `Cc1nccn1CC1CCc2c(c3ccccc3n2C)C1=O` (stereo not shown) [ondansetron], the “effect on nausea (in words)” value [7] is given as “no clear-cut effect against the nausea” and the “effect on vomiting (in words)” value [7] is given as “clearly effective in preventing vomiting”.
